The text below walks through data of ChEMBL document CHEMBL3621044, “Pyrido- and benzisothiazolones as inhibitors of histone acetyltransferases (HATs)” (Medchemcomm, 2014).

Experiment [1] deals with Histone acetyltransferase KAT2A (Homo sapiens, UniProt Q92830). As to the kind of experiment: Inhibition of recombinant human KAT2A using biotinylated histone H3 (1 to 21 amino acid residues) as substrate at 50 uM preincubated for 10 mins followed by acetyl-CoA addition measured after 10 mins by time resolved fluorescence assay.
Experiment [2] addresses Histone acetyltransferase p300 (Homo sapiens, UniProt Q09472). As to the kind of experiment: Inhibition of recombinant human p300 using biotinylated histone H3 (1 to 21 amino acid residues) as substrate at 50 uM preincubated for 10 mins followed by acetyl-CoA addition measured after 10 mins by time resolved fluorescence assay.
In experiment [3] the target is T1, CREB-binding protein (Homo sapiens, UniProt Q92793). As to the kind of experiment: Inhibition of recombinant human CBP using biotinylated histone H3 (1 to 21 amino acid residues) as substrate at 50 uM preincubated for 10 mins followed by acetyl-CoA addition measured after 10 mins by time resolved fluorescence assay.
Experiment [4] concerns LNCaP. As to the kind of experiment: Cytotoxicity against human LNCAP cells assessed as growth inhibition at 40 uM after 72 hrs by MTS assay. It is filed as functional. (In general: Tetrazolium dyes change colour on reduction, which living cells bring about.)
Experiment [5] concerns the target T1, CREB-binding protein. As to the kind of experiment: Inhibition of recombinant human CBP using biotinylated histone H3 (1 to 21 amino acid residues) as substrate preincubated for 10 mins followed by acetyl-CoA addition measured after 10 mins by time resolved fluorescence assay.
Target sequence in this assay (Q92793 whole entry, the tested form may be a part): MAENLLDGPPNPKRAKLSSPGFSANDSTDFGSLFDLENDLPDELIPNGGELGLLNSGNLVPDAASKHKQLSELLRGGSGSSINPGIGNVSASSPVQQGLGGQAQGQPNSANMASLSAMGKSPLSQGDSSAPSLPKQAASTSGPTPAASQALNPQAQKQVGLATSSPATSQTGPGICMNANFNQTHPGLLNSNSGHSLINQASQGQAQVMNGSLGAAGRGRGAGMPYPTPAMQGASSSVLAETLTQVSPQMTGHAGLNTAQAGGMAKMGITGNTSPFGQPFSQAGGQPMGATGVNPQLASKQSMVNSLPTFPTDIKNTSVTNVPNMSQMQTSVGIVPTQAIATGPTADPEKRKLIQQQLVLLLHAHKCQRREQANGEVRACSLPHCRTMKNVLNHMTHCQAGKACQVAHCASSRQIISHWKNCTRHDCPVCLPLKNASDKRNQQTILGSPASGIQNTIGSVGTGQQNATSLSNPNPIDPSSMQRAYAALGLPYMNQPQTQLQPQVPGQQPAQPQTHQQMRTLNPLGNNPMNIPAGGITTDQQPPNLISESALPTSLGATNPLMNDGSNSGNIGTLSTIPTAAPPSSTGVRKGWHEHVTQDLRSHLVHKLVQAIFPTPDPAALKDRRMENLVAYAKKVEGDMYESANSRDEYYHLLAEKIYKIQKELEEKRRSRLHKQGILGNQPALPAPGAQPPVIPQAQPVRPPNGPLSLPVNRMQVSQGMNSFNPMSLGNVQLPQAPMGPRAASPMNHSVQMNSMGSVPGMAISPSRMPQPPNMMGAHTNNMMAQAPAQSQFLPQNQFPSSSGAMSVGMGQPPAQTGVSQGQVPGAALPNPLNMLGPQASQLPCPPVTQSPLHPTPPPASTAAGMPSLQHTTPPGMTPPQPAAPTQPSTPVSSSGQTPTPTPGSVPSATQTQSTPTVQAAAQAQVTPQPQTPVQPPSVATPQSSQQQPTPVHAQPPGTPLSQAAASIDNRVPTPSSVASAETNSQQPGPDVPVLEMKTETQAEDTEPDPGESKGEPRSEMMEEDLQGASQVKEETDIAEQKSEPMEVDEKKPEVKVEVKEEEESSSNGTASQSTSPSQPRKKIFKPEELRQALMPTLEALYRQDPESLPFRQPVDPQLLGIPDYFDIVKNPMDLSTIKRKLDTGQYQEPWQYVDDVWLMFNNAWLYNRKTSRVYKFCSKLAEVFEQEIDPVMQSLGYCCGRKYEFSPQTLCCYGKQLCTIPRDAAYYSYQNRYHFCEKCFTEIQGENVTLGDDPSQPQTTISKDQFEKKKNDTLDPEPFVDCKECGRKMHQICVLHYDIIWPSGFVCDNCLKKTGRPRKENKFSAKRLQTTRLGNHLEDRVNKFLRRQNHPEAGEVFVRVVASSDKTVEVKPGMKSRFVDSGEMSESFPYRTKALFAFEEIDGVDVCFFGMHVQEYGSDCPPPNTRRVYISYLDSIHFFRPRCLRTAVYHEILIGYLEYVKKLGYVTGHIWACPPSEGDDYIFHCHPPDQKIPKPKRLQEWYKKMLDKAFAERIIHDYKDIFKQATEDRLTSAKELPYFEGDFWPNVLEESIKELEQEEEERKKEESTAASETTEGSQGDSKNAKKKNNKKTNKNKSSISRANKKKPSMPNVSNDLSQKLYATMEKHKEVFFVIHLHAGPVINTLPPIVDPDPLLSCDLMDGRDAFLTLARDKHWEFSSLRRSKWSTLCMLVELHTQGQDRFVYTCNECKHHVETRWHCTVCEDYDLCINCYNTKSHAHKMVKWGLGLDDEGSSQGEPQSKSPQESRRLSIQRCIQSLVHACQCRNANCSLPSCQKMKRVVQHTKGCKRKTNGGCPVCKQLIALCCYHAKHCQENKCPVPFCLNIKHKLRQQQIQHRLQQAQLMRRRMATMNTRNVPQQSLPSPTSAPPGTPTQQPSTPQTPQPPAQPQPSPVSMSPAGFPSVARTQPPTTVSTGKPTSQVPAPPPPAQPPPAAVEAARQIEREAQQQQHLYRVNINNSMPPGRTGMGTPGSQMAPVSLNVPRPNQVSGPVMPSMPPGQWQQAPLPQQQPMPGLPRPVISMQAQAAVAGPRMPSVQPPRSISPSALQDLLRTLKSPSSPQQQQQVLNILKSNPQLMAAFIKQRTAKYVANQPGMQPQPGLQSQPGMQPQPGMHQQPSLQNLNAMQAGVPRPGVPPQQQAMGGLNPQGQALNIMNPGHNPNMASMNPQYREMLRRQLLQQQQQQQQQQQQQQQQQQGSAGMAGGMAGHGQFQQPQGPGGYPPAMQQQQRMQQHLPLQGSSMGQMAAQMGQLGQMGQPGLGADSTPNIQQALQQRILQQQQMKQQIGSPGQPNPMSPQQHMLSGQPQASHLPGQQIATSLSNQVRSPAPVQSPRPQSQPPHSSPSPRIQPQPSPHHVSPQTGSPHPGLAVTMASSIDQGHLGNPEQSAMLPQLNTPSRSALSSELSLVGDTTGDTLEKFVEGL
The subject of experiment [6] is HL-60. Put plainly: Cytotoxicity against human HL60 cells assessed as growth inhibition at 20 uM after 72 hrs by MTS assay. It is filed as functional. To be noted: HL-60, 72 h, read-out: GI.

Calls of active or inactive are those of the source. The rule behind the calls is not given here.

Histone acetyltransferase p300, sequence (Q09472 whole entry, the tested form may be a part): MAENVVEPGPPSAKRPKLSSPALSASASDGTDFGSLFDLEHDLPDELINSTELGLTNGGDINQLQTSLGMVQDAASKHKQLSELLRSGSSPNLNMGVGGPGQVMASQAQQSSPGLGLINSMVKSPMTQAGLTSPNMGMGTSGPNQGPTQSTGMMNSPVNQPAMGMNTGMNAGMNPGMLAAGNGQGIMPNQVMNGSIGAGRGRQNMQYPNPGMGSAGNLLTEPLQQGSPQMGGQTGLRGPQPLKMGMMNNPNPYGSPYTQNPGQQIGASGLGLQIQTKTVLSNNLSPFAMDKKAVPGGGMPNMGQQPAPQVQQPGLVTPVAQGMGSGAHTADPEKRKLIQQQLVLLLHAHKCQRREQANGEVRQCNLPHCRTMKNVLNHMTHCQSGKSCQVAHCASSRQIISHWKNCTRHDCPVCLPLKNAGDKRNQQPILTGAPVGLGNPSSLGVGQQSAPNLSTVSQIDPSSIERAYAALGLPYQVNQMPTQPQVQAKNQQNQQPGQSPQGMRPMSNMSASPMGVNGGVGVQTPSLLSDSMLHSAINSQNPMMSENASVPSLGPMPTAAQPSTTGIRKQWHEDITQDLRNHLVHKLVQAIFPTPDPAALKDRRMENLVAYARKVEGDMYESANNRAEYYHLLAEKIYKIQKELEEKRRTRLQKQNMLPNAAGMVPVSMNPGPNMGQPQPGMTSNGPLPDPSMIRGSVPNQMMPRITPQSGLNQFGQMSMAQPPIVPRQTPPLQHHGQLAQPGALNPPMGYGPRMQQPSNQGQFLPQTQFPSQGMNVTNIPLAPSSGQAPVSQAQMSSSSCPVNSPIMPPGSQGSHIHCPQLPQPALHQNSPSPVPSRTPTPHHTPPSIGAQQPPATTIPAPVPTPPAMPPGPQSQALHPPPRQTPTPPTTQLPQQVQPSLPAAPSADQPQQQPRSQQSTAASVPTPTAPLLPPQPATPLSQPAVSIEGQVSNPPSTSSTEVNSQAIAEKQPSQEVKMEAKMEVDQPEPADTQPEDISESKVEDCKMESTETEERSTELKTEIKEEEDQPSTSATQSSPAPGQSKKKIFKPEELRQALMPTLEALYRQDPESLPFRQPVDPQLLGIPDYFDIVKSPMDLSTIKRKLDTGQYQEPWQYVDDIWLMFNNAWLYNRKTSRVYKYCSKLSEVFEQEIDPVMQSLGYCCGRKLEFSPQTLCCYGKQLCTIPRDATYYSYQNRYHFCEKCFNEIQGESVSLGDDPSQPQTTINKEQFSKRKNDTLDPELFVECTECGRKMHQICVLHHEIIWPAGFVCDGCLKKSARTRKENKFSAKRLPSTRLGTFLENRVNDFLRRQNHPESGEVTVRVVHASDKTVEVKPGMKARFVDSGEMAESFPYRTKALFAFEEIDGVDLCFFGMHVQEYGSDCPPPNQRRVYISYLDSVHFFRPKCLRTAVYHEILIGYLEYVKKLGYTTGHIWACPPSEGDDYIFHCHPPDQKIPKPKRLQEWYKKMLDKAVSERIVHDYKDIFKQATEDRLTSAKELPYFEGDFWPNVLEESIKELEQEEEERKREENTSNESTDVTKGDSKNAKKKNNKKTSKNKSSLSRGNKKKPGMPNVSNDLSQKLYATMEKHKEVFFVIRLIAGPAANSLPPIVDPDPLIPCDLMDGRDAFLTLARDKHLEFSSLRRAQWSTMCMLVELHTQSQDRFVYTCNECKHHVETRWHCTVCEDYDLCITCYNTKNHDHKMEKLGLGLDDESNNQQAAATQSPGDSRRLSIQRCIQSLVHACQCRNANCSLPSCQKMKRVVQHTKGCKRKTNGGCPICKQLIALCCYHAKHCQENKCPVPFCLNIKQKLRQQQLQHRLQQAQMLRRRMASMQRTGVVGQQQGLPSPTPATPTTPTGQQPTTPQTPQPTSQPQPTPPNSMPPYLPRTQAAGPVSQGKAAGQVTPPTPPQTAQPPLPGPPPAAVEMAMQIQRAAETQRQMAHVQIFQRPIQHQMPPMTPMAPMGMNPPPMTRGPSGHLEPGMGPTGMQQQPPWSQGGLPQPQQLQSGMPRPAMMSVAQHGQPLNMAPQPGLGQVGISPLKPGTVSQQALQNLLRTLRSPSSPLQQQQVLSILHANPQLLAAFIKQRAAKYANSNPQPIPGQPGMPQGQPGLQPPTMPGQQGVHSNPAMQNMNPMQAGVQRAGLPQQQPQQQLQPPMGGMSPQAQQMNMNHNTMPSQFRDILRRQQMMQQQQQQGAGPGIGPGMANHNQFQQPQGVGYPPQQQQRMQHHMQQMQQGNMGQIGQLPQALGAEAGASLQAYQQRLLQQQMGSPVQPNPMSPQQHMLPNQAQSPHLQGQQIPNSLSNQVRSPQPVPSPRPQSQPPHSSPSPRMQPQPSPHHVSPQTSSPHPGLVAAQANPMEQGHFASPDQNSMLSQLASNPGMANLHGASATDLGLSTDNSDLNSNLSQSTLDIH

Take `O=C(Cn1sc2cc(F)ccc2c1=O)Nc1nc(-c2ccccc2)cs1`: the inhibition in experiment [1] was found to be 21%; in experiment [2] it was 18%; in experiment [3], 99%. In addition, the “growth inhibition (GI)” value in experiment [4] is “inactive”. For the same compound, the IC50 in experiment [5] is 1440 nM. In addition, the inhibition of growth at 20 µM in experiment [6] is 14.5%.

The term inhibition denotes the percentage by which the read-out fell short of the control. As a reminder, the IC50 is the midpoint of a concentration-inhibition curve.
